Laboratory results taken from ChEMBL document CHEMBL1921683, “Radiosynthesis of three [11C]ureido-substituted benzenesulfonamides as PET probes for carbonic anhydrase IX in tumors” (Bioorg Med Chem Lett, 2011).

Assay: Chemical stability of the compound assessed as decomposition of the compound
Type: physicochemical

Structure (SMILES): N#Cc1ccccc1N[11C](=O)Nc1ccc(S(N)(=O)=O)cc1
- Stability: Unstable
